# In US6617166B2, “Measurement of accelerated whole blood clotting time” (Prophylaxis Limited, priority 1999, dated 2003):
# Several values for one entry are separate records, joined by “and”; a condition that tells them apart may be missing. Identical values can stand only once. Marks after values point to notes of the source that are not given here.
# Key:
# native whole blood = test: Accelerated whole blood clotting time (AWBCT), native blood; type: cell-based
# Protocol: (§1) Whilst native blood is tested immediately after collection, for example, within two minutes, citrated blood may be stored for a longer period, before being recalcified immediately before the test is conducted. The interval between blood collection and testing may be on the order of one hour. It should be noted that shorter collection intervals give more reliable results.
# (§2) The test is performed on native freshly drawn venous blood, or recalcified citrated blood or heparinised blood.
# (§3) 100 μL of saline control or a range of concentration of a platelet agonists are added to the wells of a coagulometer and then 200 μL of native or RCCWB whole blood added and the coagulation time recorded. The potential agonists are; collagen, ADP, adrenalin, platelet activating factor, thrombin. It is anticipated that the agonist appropriate for specific roles will emerge in the course of clinical studies.
# (§4) Numbers are the time to coagulation in seconds. The results given are the averages of duplicates, unless otherwise indicated by an asterix, (corresponding to single coagulation times where spurious results have not been averaged).
# [1] = tested on: recalcified citrated whole blood; test: Accelerated whole blood clotting time (AWBCT), recalcified citrated whole blood (RCCWB); type: cell-based
# Protocol: Comparison of the results using native blood and citrated blood was made. 9 parts of citrated blood was added to 1 part calcium n chloride 133 mM, mixed and aliquotes of the recalcified citrated blood added to the wells of the coagulometer containing duplicates of saline control and dilutions of collagen. A concentration of […] calcium chloride is considered to be optimal; but concentrations in the range of, for example, 110-140 mM may be used. However, it should be noted that the length and un-reliability of coagulation times increase with concentrations further from the optimum, especially with higher values.
# as §1, §2, §3, §4
compound,measurement,setting,value
"Nc1ncnc2c1ncn2[C@@H]1O[C@H](COP(=O)(O)OP(=O)(O)O)[C@@H](O)[C@H]1O [ADP, adenosine diphosphate]",time to coagulation (AWBCT),native whole blood; ADP 6.25 μM,265 s
same,time to coagulation (AWBCT),native whole blood; ADP 12.5 μM,269 s
same,time to coagulation (AWBCT),native whole blood; ADP 25 μM,272 s
same,time to coagulation (AWBCT),native whole blood; ADP 50 μM,255 s
same,time to coagulation (AWBCT),"[1]; recalcified whole blood, ADP 12.5 μM, collection interval +65 mins",329 s
same,time to coagulation (AWBCT),"[1]; recalcified whole blood, ADP 25 μM, collection interval +65 mins",358 s
same,time to coagulation (AWBCT),"[1]; recalcified whole blood, ADP 50 μM, collection interval +65 mins",348 s
same,time to coagulation (AWBCT),"[1]; recalcified whole blood, ADP 100 μM, collection interval +65 mins",341 s
CC(=O)Oc1ccccc1C(=O)O [Aspirin],time to coagulation (AWBCT),"[1]; RCCWB, aspirin 40 μg/ml, collagen 0.125 mg/ml, collection interval +135 min",275 s
same,time to coagulation (AWBCT),"[1]; RCCWB, aspirin 40 μg/ml, collagen 0.25 mg/ml, collection interval +135 min",274 s
same,time to coagulation (AWBCT),"[1]; RCCWB, aspirin 40 μg/ml, collagen 0.5 mg/ml, collection interval +135 min",216 s
same,time to coagulation (AWBCT),"[1]; RCCWB, aspirin 40 μg/ml, collagen 1.0 mg/ml, collection interval +135 min",184 s
same,time to coagulation (AWBCT),"[1]; RCCWB, aspirin 40 μg/ml, saline, collection interval +135 min",500 s
same,time to coagulation (AWBCT),"[1]; RCCWB, aspirin 80 μg/ml, collagen 0.125 mg/ml, collection interval +106 min",224 s
same,time to coagulation (AWBCT),"[1]; RCCWB, aspirin 80 μg/ml, collagen 0.25 mg/ml, collection interval +106 min",236 s
same,time to coagulation (AWBCT),"[1]; RCCWB, aspirin 80 μg/ml, collagen 0.5 mg/ml, collection interval +106 min",218* seconds
same,time to coagulation (AWBCT),"[1]; RCCWB, aspirin 80 μg/ml, collagen 1.0 mg/ml, collection interval +106 min",212 s
same,time to coagulation (AWBCT),"[1]; RCCWB, aspirin 80 μg/ml, saline, collection interval +106 min",468 s
Heparin,time to coagulation (AWBCT),"[1]; RCCWB + Heparin 1.25 u/ml, collagen 0.125 mg/ml",325* seconds
same,time to coagulation (AWBCT),"[1]; RCCWB + Heparin 1.25 u/ml, collagen 0.25 mg/ml",302 s
same,time to coagulation (AWBCT),"[1]; RCCWB + Heparin 1.25 u/ml, collagen 0.5 mg/ml",71 s
same,time to coagulation (AWBCT),"[1]; RCCWB + Heparin 1.25 u/ml, collagen 1.0 mg/ml",54 s
same,time to coagulation (AWBCT),"[1]; RCCWB + Heparin 1.25 u/ml, saline",500+ seconds
same,time to coagulation (AWBCT),"[1]; RCCWB + Heparin 2.5 u/ml, collagen 0.125 mg/ml",340 s
same,time to coagulation (AWBCT),"[1]; RCCWB + Heparin 2.5 u/ml, collagen 0.25 mg/ml",405 s
same,time to coagulation (AWBCT),"[1]; RCCWB + Heparin 2.5 u/ml, collagen 0.5 mg/ml",61 s
same,time to coagulation (AWBCT),"[1]; RCCWB + Heparin 2.5 u/ml, collagen 1.0 mg/ml",41 s
same,time to coagulation (AWBCT),"[1]; RCCWB + Heparin 2.5 u/ml, saline",600+ seconds
same,time to coagulation (AWBCT),"[1]; RCCWB, Heparin 5.0 u/ml, collagen 0.125 mg/ml",600+ seconds
same,time to coagulation (AWBCT),"[1]; RCCWB, Heparin 5.0 u/ml, collagen 0.25 mg/ml",600+ seconds
same,time to coagulation (AWBCT),"[1]; RCCWB, Heparin 5.0 u/ml, collagen 0.5 mg/ml",48 s
same,time to coagulation (AWBCT),"[1]; RCCWB, Heparin 5.0 u/ml, collagen 1.0 mg/ml",31 s
same,time to coagulation (AWBCT),"[1]; RCCWB, Heparin 5.0 u/ml, saline",600+ seconds
same,time to coagulation (AWBCT),"[1]; RCCWB, Heparin 10 u/ml, collagen 0.125 mg/ml",600+ seconds
same,time to coagulation (AWBCT),"[1]; RCCWB, Heparin 10 u/ml, collagen 0.25 mg/ml",600+ seconds
same,time to coagulation (AWBCT),"[1]; RCCWB, Heparin 10 u/ml, collagen 0.5 mg/ml",34 s
same,time to coagulation (AWBCT),"[1]; RCCWB, Heparin 10 u/ml, collagen 1.0 mg/ml",27 s
same,time to coagulation (AWBCT),"[1]; RCCWB, Heparin 10 u/ml, saline",600+ seconds
Low Molecular Weight Heparin [LMWH],time to coagulation (AWBCT),"native whole blood; LMWH 0.25 u/ml, collagen 0.125 mg/ml",233 s
same,time to coagulation (AWBCT),"native whole blood; LMWH 0.25 u/ml, collagen 0.25 mg/ml",224 s
same,time to coagulation (AWBCT),"native whole blood; LMWH 0.25 u/ml, collagen 0.5 mg/ml",204* seconds
same,time to coagulation (AWBCT),"native whole blood; LMWH 0.25 u/ml, collagen 1.0 mg/ml",64 s
same,time to coagulation (AWBCT),"native whole blood; LMWH 0.25 u/ml, saline",500+ seconds
same,time to coagulation (AWBCT),"native whole blood; LMWH 0.5 u/ml, collagen 0.125 mg/ml",226 s
same,time to coagulation (AWBCT),"native whole blood; LMWH 0.5 u/ml, collagen 0.25 mg/ml",228 s
same,time to coagulation (AWBCT),"native whole blood; LMWH 0.5 u/ml, collagen 0.5 mg/ml",41 s
same,time to coagulation (AWBCT),"native whole blood; LMWH 0.5 u/ml, collagen 1.0 mg/ml",46 s
same,time to coagulation (AWBCT),"native whole blood; LMWH 0.5 u/ml, saline",500+ seconds
same,time to coagulation (AWBCT),"native whole blood; LMWH 1.0 u/ml, collagen 0.125 mg/ml",318 s
same,time to coagulation (AWBCT),"native whole blood; LMWH 1.0 u/ml, collagen 0.25 mg/ml",259 s
same,time to coagulation (AWBCT),"native whole blood; LMWH 1.0 u/ml, collagen 0.5 mg/ml",48* seconds
same,time to coagulation (AWBCT),"native whole blood; LMWH 1.0 u/ml, collagen 1.0 mg/ml",27* seconds
same,time to coagulation (AWBCT),"native whole blood; LMWH 1.0 u/ml, saline",500+ seconds
same,time to coagulation (AWBCT),"native whole blood; LMWH 2.0 u/ml, collagen 0.125 mg/ml",500+ seconds
same,time to coagulation (AWBCT),"native whole blood; LMWH 2.0 u/ml, collagen 0.25 mg/ml",500+ seconds
same,time to coagulation (AWBCT),"native whole blood; LMWH 2.0 u/ml, collagen 0.5 mg/ml",500+ seconds
same,time to coagulation (AWBCT),"native whole blood; LMWH 2.0 u/ml, collagen 1.0 mg/ml",295 s
same,time to coagulation (AWBCT),"native whole blood; LMWH 2.0 u/ml, saline",500+ seconds
collagen,time to coagulation (AWBCT),native whole blood; collagen 0.125 mg/ml,178 s and 134 s and 140 s and 149 s
same,time to coagulation (AWBCT),native whole blood; collagen 0.25 mg/ml,162 s and 111 s and 125 s and 137 s
same,time to coagulation (AWBCT),native whole blood; collagen 1.0 mg/ml,34 seconds and 28* seconds and 24 seconds and 29 seconds
same,time to coagulation (AWBCT),"[1]; RCCWB 50 mins later, collagen 0.125 mg/ml",190 s
same,time to coagulation (AWBCT),"[1]; RCCWB 50 mins later, collagen 0.25 mg/ml",184 s
same,time to coagulation (AWBCT),"[1]; RCCWB 50 mins later, collagen 0.5 mg/ml",181 s
same,time to coagulation (AWBCT),"[1]; RCCWB 50 mins later, collagen 1.0 mg/ml",55 s
same,time to coagulation (AWBCT),"[1]; RCCWB 75 mins later, collagen 0.125 mg/ml",202 s
same,time to coagulation (AWBCT),"[1]; RCCWB 75 mins later, collagen 0.25 mg/ml",209 s
same,time to coagulation (AWBCT),"[1]; RCCWB 75 mins later, collagen 0.5 mg/ml",70 s
same,time to coagulation (AWBCT),"[1]; RCCWB 75 mins later, collagen 1.0 mg/ml",50 s
same,time to coagulation (AWBCT),"[1]; RCCWB, collagen 0.125 mg/ml",166 s and 159 s and 177 s and 178 s
same,time to coagulation (AWBCT),"[1]; RCCWB, collagen 0.25 mg/ml",185 seconds and 151 seconds and 165 seconds and 161* seconds
same,time to coagulation (AWBCT),"[1]; RCCWB, collagen 1.0 mg/ml",44 s and 49 s and 39 s and 56 s
